{"source": "patent US20060120956A1", "about": "“Imaging agents comprising barbituric acid derivatives” (priority 2002, published 2006)", "key": {"MMP-9 [1]": {"molecular_target": "T1, MMP-9 (Homo sapiens, UniProt P14780)", "experiment": "In vitro metalloproteinase inhibition assay, fluorogenic substrate (method of Huang et al.)", "assay_type": "biochemical", "details": "fluorogenic substrate 1 μM, MMP 1 nM, inhibitor 1000 pM-100 μM", "text": "In Vitro Metalloproteinase Inhibition Assay"}, "MMP-2 [2]": {"molecular_target": "T2, MMP-2 (Homo sapiens, UniProt P08253)", "T2 sequence (P08253 110-660)": "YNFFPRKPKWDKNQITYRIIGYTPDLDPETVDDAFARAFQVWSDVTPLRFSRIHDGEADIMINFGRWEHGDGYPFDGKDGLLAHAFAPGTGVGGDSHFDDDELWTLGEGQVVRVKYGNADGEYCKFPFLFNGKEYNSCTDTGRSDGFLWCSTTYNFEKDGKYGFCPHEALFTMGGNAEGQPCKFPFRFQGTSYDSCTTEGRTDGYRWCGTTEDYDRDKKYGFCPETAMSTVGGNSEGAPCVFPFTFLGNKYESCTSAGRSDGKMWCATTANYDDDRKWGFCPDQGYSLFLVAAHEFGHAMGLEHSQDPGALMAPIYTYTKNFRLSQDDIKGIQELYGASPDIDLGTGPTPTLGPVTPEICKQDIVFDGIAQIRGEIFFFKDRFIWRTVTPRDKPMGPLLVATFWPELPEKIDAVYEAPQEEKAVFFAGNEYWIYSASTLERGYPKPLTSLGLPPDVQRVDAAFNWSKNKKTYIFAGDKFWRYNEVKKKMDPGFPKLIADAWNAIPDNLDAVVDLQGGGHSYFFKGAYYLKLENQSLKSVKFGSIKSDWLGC", "details": "read-out: MMP-2 IC50; fluorogenic substrate 1 μM, MMP 1 nM, inhibitor 1000 pM-100 μM"}, "MMP-2 [3]": {"molecular_target": "MMP-2 (Homo sapiens, UniProt P08253)", "experiment": "Biomol MMP-2 colourimetric assay kit AK-408 (thiopeptolide substrate)", "assay_type": "biochemical", "description": "(§1) Additional In Vitro Metalloproteinase Inhibition Assay\n(§2) Compounds were screened using the following commercially available Biomol assay kits:\nMMP-2 colourimetric assay kit—Catalogue number AK-408,\n(§3) Which are available from Affiniti Research Products Ltd. (Palatine House, Matford Court, Exeter, EX2 8NL, UK).\n(§4) (a) Test Compound Preparation.\n(§5) Inhibitors were provided in powdered form, and stored at 4° C. For each inhibitor a 1 mM stock solution in DMSO was prepared, dispensed into 20 μl aliquots and these aliquots stored at −20° C. The stock solution was diluted to give 8 inhibitor concentrations (recommended: […], 5 μM, 500 nM, 50 nM, 5 nM, 500 pM, 50 pM and 5 pM). Dilutions were made in the kit assay buffer. A five-fold dilution of the inhibitor stocks is made on addition to the assay wells, therefore final concentration range is from 10 μM to 1 pM.\n(§6) (b) Experimental Procedure.\n(§7) Details are provided with the commercial kit, but can be summarised as follows:\n(§8) Prepare test compound dilutions as above,\n(§9) Add assay buffer to plate,\n(§10) Add test compounds to plate\n(§11) Prepare standard kit inhibitor NNGH (see kit for dilution factor)\n(§12) Add NNGH to control inhibitor wells\n(§13) Prepare MMP enzyme (see kit for dilution factor)\n(§14) Incubate plate at 37° C. for ˜15 min\n(§15) Prepare thiopeptolide substrate (see kit for dilution factor)\n(§16) Count every 2 min for 1 hr, 37° C., 414 nm on a Labsystems iEMS plate reader."}, "MMP-9 [4]": {"molecular_target": "T1, MMP-9", "experiment": "Biomol MMP-9 colourimetric assay kit AK-410 (thiopeptolide substrate)", "assay_type": "biochemical", "description": "as §1, §2\nMMP-9 colourimetric assay kit—Catalogue number AK-410,\nas §3, §4, §5, §6, §7, §8, §9, §10, §11, §12, §13, §14, §15, §16"}, "MMP-12": {"molecular_target": "MMP-12 (Homo sapiens, UniProt P39900)", "sequence (P39900 106-268 limits assumed)": "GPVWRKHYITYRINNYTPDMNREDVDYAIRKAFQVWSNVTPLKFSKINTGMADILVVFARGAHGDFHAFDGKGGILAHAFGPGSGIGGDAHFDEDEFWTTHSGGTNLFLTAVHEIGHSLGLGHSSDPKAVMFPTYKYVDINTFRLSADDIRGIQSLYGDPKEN", "experiment": "Biomol MMP-12 colourimetric assay kit AK-402 (thiopeptolide substrate)", "assay_type": "biochemical", "description": "as §1, §2\nMMP-12 colourimetric assay kit—Catalogue number AK-402,\nas §3, §4, §5, §6, §7, §8, §9, §10, §11, §12, §13, §14, §15, §16"}}, "note": "Like-named read-outs stand apart in the source and are kept apart here."}
{"smiles": "C[Si](C)(C)c1ccc(N2CCN(C3(c4ccc(Oc5ccc(Br)cc5)cc4)C(=O)NC(=O)NC3=O)CC2)cc1", "values": [{"measurement": "melting point", "value": "205 to 210", "unit": "°C"}]}
{"smiles": "O=C1NC(=O)C(c2ccc(Oc3ccc(Br)cc3)cc2)(N2CCN(CCO)CC2)C(=O)N1", "note": "[Compound 2, 5-[4-(4-bromo-phenoxy)phenyl]-5-[4-(2-hydroxyethyl)piperazin-1-yl]-pyrimidine-2,4,6-trione, reference compound]", "values": [{"measurement": "IC50", "setting": "MMP-9 [1]", "value": 4, "unit": "nM"}, {"measurement": "IC50", "setting": "MMP-2 [2]", "value": 9, "unit": "nM"}]}
{"smiles": "COc1ccc(Oc2ccc(C3(N4CCN(CCO)CC4)C(=O)NC(=O)NC3=O)cc2)cc1", "note": "[Compound 3, 5-[4-(2-hydroxyethyl)piperazin-1-yl]-5-[4 (4-methoxy-phenoxy)phenyl]-pyrimidine-2,4,6-trione, reference compound]", "values": [{"measurement": "IC50", "setting": "MMP-9 [1]", "value": 6, "unit": "nM"}, {"measurement": "IC50", "setting": "MMP-2 [2]", "value": 9, "unit": "nM"}]}
{"smiles": "O=C1NC(=O)C(c2ccc(Oc3ccc(I)cc3)cc2)(N2CCN(CCO)CC2)C(=O)N1", "note": "[Compound 4, 5-[4-(2-Hydroxyethyl)piperazin-1-yl]-5-[4-(4-iodo-phenoxy)phenyl]-pyrimidine-2,4,6-trione]", "values": [{"measurement": "IC50", "setting": "MMP-9 [1]", "value": 2, "unit": "nM"}, {"measurement": "IC50", "setting": "MMP-2 [2]", "value": 7, "unit": "nM"}]}
{"smiles": "O=C1NC(=O)C(c2ccc(Oc3ccc(Br)cc3)cc2)(N2CCN(CCCF)CC2)C(=O)N1", "note": "[Compound 7, 5-[4-(4-Bromophenoxy)phenyl]-5-[4-(3-fluoropropyl)-piperazin-1-yl)-pyrimidine-2,4,6-trione]", "values": [{"measurement": "Ki", "setting": "MMP-2 [3]", "value": 11, "unit": "nM"}, {"measurement": "Ki", "setting": "MMP-9 [4]", "value": 2, "unit": "nM"}]}
{"smiles": "O=C1NC(=O)C(c2ccc(Oc3ccc(Br)cc3)cc2)(N2CCN(C(=O)CSCCCF)CC2)C(=O)N1", "note": "[Compound 9]", "values": [{"measurement": "Ki", "setting": "MMP-2 [3]", "value": 5, "unit": "nM"}, {"measurement": "Ki", "setting": "MMP-9 [4]", "value": 0.3, "unit": "nM"}, {"measurement": "Ki", "setting": "MMP-12", "value": 11, "unit": "nM"}]}
{"smiles": "CC(=NO)C(C)(C)NCCC(CCNC(=O)CCN1CCN(C2(c3ccc(Oc4ccc(Br)cc4)cc3)C(=O)NC(=O)NC2=O)CC1)CCNC(C)(C)C(C)=NO", "note": "(stereo not drawn) [Compound 16, 3-(4-{5-[4-(4-Bromophenoxy)-phenyl]-2,4,6-trioxohexahydropyrmidin-5-yl}-piperazin-1-yl)N-{5-(2-hydroxylimino-1,1-dimethylpropylamino)-3-[2-(2-hydroxylamino-1,1-dimethylpropylamino)-ethyl]-pentyl}-propionamide]", "values": [{"measurement": "Ki", "setting": "MMP-2 [3]", "value": 14, "unit": "nM"}, {"measurement": "Ki", "setting": "MMP-9 [4]", "value": 3, "unit": "nM"}]}
{"smiles": "CC(=NO)C(C)(C)NCCC(CCNC(=O)CCCC(=O)NCCN1CCN(C2(c3ccc(Oc4ccc(Br)cc4)cc3)C(=O)NC(=O)NC2=O)CC1)CCNC(C)(C)C(C)=NO", "note": "(stereo not drawn) [Compound 17]", "values": [{"measurement": "Ki", "setting": "MMP-2 [3]", "value": 29, "unit": "nM"}, {"measurement": "Ki", "setting": "MMP-9 [4]", "value": 10, "unit": "nM"}, {"measurement": "Ki", "setting": "MMP-12; colourimetric kit, thiopeptolide substrate, 37° C., 414 nm, read-out: MMP-12 (Ki)", "value": 157, "unit": "nM"}]}
{"smiles": "O=C1NC(=O)C(c2ccc(Oc3ccc(Br)cc3)cc2)(N2CCN(c3ccc(F)cc3)CC2)C(=O)N1", "note": "[Compound 20, 5-[4-(4-Bromo-phenoxy)phenyl]-5-[4-(4-fluorophenyl)piperazin-1-yl]-pyrimidine-2,4,6-trione]", "values": [{"measurement": "IC50", "setting": "MMP-9 [1]", "value": 19, "unit": "nM"}, {"measurement": "IC50", "setting": "MMP-2 [2]", "value": 12, "unit": "nM"}]}
{"smiles": "O=C1NC(=O)C(Nc2ccc(I)cc2)(c2ccc(Oc3ccc(Br)cc3)cc2)C(=O)N1", "note": "[Compound 24, 5-[4-(4-Bromophenoxy)-phenyl]-5-(4-iodophenylamino)-pyrimidine-2,4,6-trione]", "values": [{"measurement": "Ki", "setting": "MMP-2 [3]", "value": 45, "unit": "nM"}, {"measurement": "Ki", "setting": "MMP-9 [4]", "value": 20, "unit": "nM"}]}
